Measurements as given in US8541611B2 (dated 2013).

melting point: 144 to 148 °C
Compound: CC(C)N(C)S(=O)(=O)NC(=O)c1cc(N=C=O)c(F)cc1Cl
